Assay results as given in patent publication US20200270237A1 (priority 2017, published 2020).
pKi: −log10 of the molar value. Read-outs that look alike come from different tables or passages of the source.

Biological target: Human α2δ-1 Subunit of Cav2.2 Calcium Channel (Homo sapiens, UniProt P54289)
Assay: biochemical
Assay type: binding
Settings: for Ki: read-out: Ki (nM) alpha2delta Hum
[1] = Table 1, human α2δ-1 enriched membranes, 15 nM [3H]-Gabapentin
[2] = Table 2 (dual compounds), human α2δ-1 enriched membranes, 15 nM [3H]-Gabapentin

Sequence of Human α2δ-1 Subunit of Cav2.2 Calcium Channel (P54289 25-1103): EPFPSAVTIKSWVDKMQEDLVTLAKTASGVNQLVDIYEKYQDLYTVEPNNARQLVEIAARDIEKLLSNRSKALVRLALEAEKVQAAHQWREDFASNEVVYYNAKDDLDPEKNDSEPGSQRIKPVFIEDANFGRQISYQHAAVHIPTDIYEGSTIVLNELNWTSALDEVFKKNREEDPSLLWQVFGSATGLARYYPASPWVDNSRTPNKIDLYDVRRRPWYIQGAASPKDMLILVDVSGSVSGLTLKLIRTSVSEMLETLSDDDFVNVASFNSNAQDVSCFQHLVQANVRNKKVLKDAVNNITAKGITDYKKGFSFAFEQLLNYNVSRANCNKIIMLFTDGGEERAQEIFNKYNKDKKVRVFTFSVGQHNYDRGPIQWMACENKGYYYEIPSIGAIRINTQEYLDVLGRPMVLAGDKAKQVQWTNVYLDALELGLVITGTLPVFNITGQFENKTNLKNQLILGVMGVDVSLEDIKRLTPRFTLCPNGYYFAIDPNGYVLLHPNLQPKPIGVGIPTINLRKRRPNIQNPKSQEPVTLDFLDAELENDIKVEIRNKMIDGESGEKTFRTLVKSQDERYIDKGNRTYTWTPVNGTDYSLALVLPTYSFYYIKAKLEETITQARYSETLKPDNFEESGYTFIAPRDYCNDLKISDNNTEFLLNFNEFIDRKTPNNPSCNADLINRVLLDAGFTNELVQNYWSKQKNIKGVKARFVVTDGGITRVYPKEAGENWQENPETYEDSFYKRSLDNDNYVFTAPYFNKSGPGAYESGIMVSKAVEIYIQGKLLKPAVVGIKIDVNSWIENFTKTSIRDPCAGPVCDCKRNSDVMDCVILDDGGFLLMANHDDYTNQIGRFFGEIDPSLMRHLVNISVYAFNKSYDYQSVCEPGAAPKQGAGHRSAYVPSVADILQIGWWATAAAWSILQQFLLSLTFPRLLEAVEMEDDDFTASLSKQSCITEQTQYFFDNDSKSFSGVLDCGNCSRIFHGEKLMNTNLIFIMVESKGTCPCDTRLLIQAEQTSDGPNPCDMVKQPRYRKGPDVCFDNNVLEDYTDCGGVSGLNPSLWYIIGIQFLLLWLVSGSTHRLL

Compound	Ki	pKi	further results
CNCCC(Oc1cccc(CN2C[C@@H](C)N[C@@H](C)C2)c1)c1cccs1 (stereo partly drawn) [Example 1, 3-(3-((3,5-Dimethylpiperazin-1-yl)methyl)phenoxy)-N-methyl-3-(thiophen-2-yl)propan-1-amine]	500 to 3000 nM	–	–
CNCCC(Oc1cccc(CN2CCC(c3ccccc3)(N(C)C)CC2)c1)c1cccs1 (stereo not drawn) [Example 2, N,N-dimethyl-1-(3-(3-(methylamino)-1-(thiophen-2-yl)propoxy)benzyl)-4-phenylpiperidin-4-amine]	–	6.30 to 7.00	–
CNCCC(Oc1cccc(CN2CCC(c3cccc(O)c3)CC2)c1)c1cccs1 (stereo not drawn) [Example 3, 3-(1-(3-(3-(Methylamino)-1-(thiophen-2-yl)propoxy)benzyl)piperidin-4-yl)phenol]	–	6.30 to 7.00	–
CNCCC(Oc1cccc(CN2CCC(c3cccc(O)c3)(N(C)C)CC2)c1)c1cccs1 (stereo not drawn) [Example 5, 3-(4-(Dimethylamino)-1-(3-(3-(methylamino)-1-(thiophen-2-yl)propoxy)benzyl)piperidin-4-yl)phenol]	–	6.30 to 7.00	–
CNCCC(Oc1cccc(CN2CCNCC2)c1)c1cccs1 (stereo not drawn) [Example 6, N-methyl-3-(3-(piperazin-1-ylmethyl)phenoxy)-3-(thiophen-2-yl)propan-1-amine]	500 to 3000 nM	–	–
CNCCC(Oc1cccc(C(=O)N2CCC(c3ccccc3)(N(C)C)CC2)c1)c1cccs1 (stereo not drawn) [Example 7, (4-(Dimethylamino)-4-phenylpiperidin-1-yl)(3-(3-(methylamino)-1-(thiophen-2-yl)propoxy)phenyl)methanone]	–	–	Ki [1]: 500 to 3000 nM; Ki [2]: 500 to 3000 nM
CNCCC(Oc1cccc(C(=O)N2CCCCC2)c1)c1ccccc1 (stereo not drawn) [Example 8, (3-(3-(Methylamino)-1-phenylpropoxy)phenyl)(piperidin-1-yl)methanone]	> 3000 nM	–	–
CNCCC(Oc1cccc(C(=O)N2CCN(C)CC2)c1)c1ccccc1 (stereo not drawn) [Example 9, (3-(3-(Methylamino)-1-phenylpropoxy)phenyl)(4-methylpiperazin-1-yl)methanone]	> 3000 nM	–	–
CNCCC(Oc1cccc(C(=O)N2CCOCC2)c1)c1ccccc1 (stereo not drawn) [Example 10, (3-(3-(Methylamino)-1-phenylpropoxy)phenyl)(morpholino)methanone]	> 3000 nM	–	–
CNCCC(Oc1cccc(C(=O)N2CCN(C)CC2)c1)c1cccs1 (stereo not drawn) [Example 11, (3-(3-(Methylamino)-1-(thiophen-2-yl)propoxy)phenyl)(4-methylpiperazin-1-yl)methanone]	> 3000 nM	–	–
CC[C@]1(N2CCN(CCc3cccc(O[C@H](CCNC)c4ccccc4)c3)CC2)CCOC(C)(C)C1 [Example 12a, (R)-3-(3-(2-(4 ((S)-4-ethyl-2,2-dimethyltetrahydro-2H-pyran-4-yl)piperazin-1-yl)ethyl)phenoxy)-N-methyl-3-phenylpropan-1-amine]	500 to 3000 nM	–	–
CC[C@@]1(N2CCN(CCc3cccc(O[C@H](CCNC)c4ccccc4)c3)CC2)CCOC(C)(C)C1 [Example 12b, (R)-3-(3-(2-(4-((R)-4-ethyl-2,2-dimethyltetrahydro-2H-pyran-4-yl)piperazin-1-yl)ethyl)phenoxy)-N-methyl-3-phenylpropan-1-amine]	500 to 3000 nM	–	–
CNCCC(Oc1cccc(-n2nc(C)cc2C)c1)c1ccccc1 (stereo not drawn) [Example 13]	> 3000 nM	–	–
CNCC[C@H](Oc1cccc(CN2CCC(c3cccc(O)c3)(N(C)C)CC2)c1)c1cccs1 [Example 14, (S)-3-(4-(dimethylamino)-1-(3-(3-(methylamino)-1-(thiophen-2-yl)propoxy)benzyl)piperidin-4-yl)phenol]	–	6.30 to 7.00	–
CNCC[C@H](Oc1cccc(CN2CCC(c3ccccc3)(N(C)C)CC2)c1)c1cccs1 [Example 15, (S)-N,N-dimethyl-1-(3-(3-(methylamino)-1-(thiophen-2-yl)propoxy)benzyl)-4-phenylpiperidin-4-amine]	–	5.52 to 6.30	–
CNCC[C@@H](Oc1cccc(CN2CCC(c3ccccc3)(N(C)C)CC2)c1)c1cccs1 [Example 16, (R)-N,N-dimethyl-1-(3-(3-(methylamino)-1-(thiophen-2-yl)propoxy)benzyl)-4-phenylpiperidin-4-amine]	–	5.52 to 6.30	–
CNCC[C@@H](Oc1cccc(CN2CCC(c3cccc(O)c3)(N(C)C)CC2)c1)c1cccs1 [Example 17, (R)-3-(4-(dimethylamino)-1-(3-(3-(methylamino)-1-(thiophen-2-yl)propoxy)benzyl)piperidin-4-yl)phenol]	–	6.30 to 7.00	–
CNCC[C@H](Oc1cccc(CN2CCN([C@]3(C(=O)c4ccccn4)CCOC(C)(C)C3)CC2)c1)c1cccs1 [Example 18, ((R)-2,2-dimethyl-4-(4-(3-((S)-3-(methylamino)-1-(thiophen-2-yl)propoxy)benzyl)piperazin-1-yl)tetrahyrdro-2H-pyran-4-yl)(pyridin-2-yl)methanone]	> 3000 nM	–	–
CNCC[C@H](Oc1cccc(CN2CCN([C@@]3(C(=O)c4ccccn4)CCOC(C)(C)C3)CC2)c1)c1cccs1 [Example 19, ((S)-2,2-dimethyl-4-(4-(3-((S)-3-(methylamino)-1-(thiophen-2-yl)propoxy)benzyl)piperazin-1-yl)tetrahydro-2H-pyran-4-yl)(pyridin-2-yl)methanone]	> 3000 nM	–	–
CNCCC(OCc1cccc(CN2CCC(c3ccccc3)(N(C)C)CC2)c1)c1cccs1 (stereo not drawn) [Example 20, N,N-dimethyl-1-(3-((3-(methylamino)-1-(thiophen-2-yl)propoxy)methyl)benzyl)-4-phenylpiperidin-4-amine]	–	–	Ki [1]: 500 to 3000 nM; Ki [2]: 500 to 3000 nM
CNCC[C@H](OCc1cccc(CN2CCC(c3ccccc3)(N(C)C)CC2)c1)c1cccs1 [Example 21, (S)-N,N-dimethyl-1-(3-((3-(methylamino)-1-(thiophen-2-yl)propoxy)methyl)benzyl)-4-phenylpiperidin-4-amine]	–	–	Ki [1]: > 3000 nM; Ki [2]: > 3000 nM
CNCC[C@@H](OCc1cccc(CN2CCC(c3ccccc3)(N(C)C)CC2)c1)c1cccs1 [Example 22, (R)-N,N-dimethyl-1-(3-((3-(methylamino)-1-(thiophen-2-yl)propoxy)methyl)benzyl)-4-phenylpiperidin-4-amine]	–	–	Ki [1]: 500 to 3000 nM; Ki [2]: 500 to 3000 nM
CNCC[C@H](OCc1cccc(CN2CCC(c3cccc(O)c3)(N(C)C)CC2)c1)c1cccs1 [Example 23, (S)-3-(4-(dimethylamino)-1-(3-((3-(methylamino)-1-(thiophen-2-yl)propoxy)methyl)benzyl)piperidin-4-yl)phenol]	–	< 5.52	–
CNCC[C@@H](OCc1cccc(CN2CCC(c3cccc(O)c3)(N(C)C)CC2)c1)c1cccs1 [Example 24, (R)-3-(4-(dimethylamino)-1-(3-((3-(methylamino)-1-(thiophen-2-yl)propoxy)methyl)benzyl)piperidin-4-yl)phenol]	–	5.52 to 6.30	–
CNCC[C@@H](OCc1cccc(CN2CCN([C@@]3(C(=O)c4ccccn4)CCOC(C)(C)C3)CC2)c1)c1ccccc1 [Example 28, ((S)-2,2-dimethyl-4-(4-(3-(((R)-3-(methylamino)-1-phenylpropoxy)methyl)benzyl)piperazin-1-yl)tetrahydro-2H-pyran-4-yl)(pyridin-2-yl)methanone]	500 to 3000 nM	–	–
CNCC[C@@H](OCc1cccc(CN2CCN([C@]3(C(=O)c4ccccn4)CCOC(C)(C)C3)CC2)c1)c1ccccc1 [Example 29, ((R)-2,2-dimethyl-4-(4-(3-(((R)-3-(methylamino)-1-phenylpropoxy)methyl)benzyl)piperazin-1-yl)tetrahydro-2H-pyran-4-yl)(pyridin-2-yl)methanone]	500 to 3000 nM	–	–
